Measured values reported in patent US9326511B2, “Methods of inhibiting microbial biofilms” (priority 2008, dated 2016).
In brackets after ≈: the same amount, converted by molar mass. Entries after “also recorded” stand apart in the source; their conditions may differ. Where two headings read alike, the source gives them in different places.

Columns and labels:
Format in all cases: cell-based, Staphylococcus aureus
S. aureus SH1000 = assay: Planktonic MIC by broth microdilution (BSAC guidelines)
Procedure: (§1) Methods: MICs were determined for planktonic cultures by broth microdilution according to British Society for Antimicrobial Chemotherapy (BSAC) guidelines. Biofilm MICs (bMIC) and minimum biofilm eradication concentrations (MBECs) were determined using the Calgary biofilm device. The effect of Compound 10 on the viability of cold culture cells was determined by growing S. aureus SH1000 to early exponential phase at 37° C. and resuspending the cells in pre-chilled media, where they were maintained in the presence and absence of Compound 10 and control agents. The effect of Compound 10 on slow growing cells expressing the stringent response was also determined by growing cultures to early log phase and the stringent response induced by the addition of the isoleucyl-tRNA synthetase inhibitor mupirocin. Compound 10 and control agents were then added and samples recovered for viable cell determinations.

[1] = test system: S. aureus SH1000 biofilms; assay: Biofilm MIC and minimum biofilm eradication concentration, Calgary Biofilm Device; settings: for bMIC / MIC: biofilm MIC; for MBEC: minimum biofilm eradication concentration; for MIC: Staphylococcus aureus, SH1000BIOFILMS, read-out: bMIC
Procedure: as §1
Biofilm MICs and minimum biofilm eradication concentrations (MBEC) were determined in the Calgary Biofilm Device (Nunc Inc, Roskilde, Denmark) as described by Miller et al., 2005. This involves the following steps. Aliquots (200 μL) of exponential phase cultures of strain SH1000 were added to each well of a 96-well microtitre tray. The lid assembly, which has 96 polystyrene pegs corresponding to each well, was then replaced and the system incubated for 24 hours at 37° C. on a rocking platform. Following this a biofilm of approximately 10^7 cfu matured on each peg. The lid was then washed twice in phosphate-buffered saline (PBS) to remove residual planktonic growth and then placed into a microtitre tray with fresh media containing doubling dilutions of the test antibiotic. The system was then incubated for 24 hours at 37° C. on a rocking platform. The MIC was defined as the lowest concentration of antibiotic completely inhibiting visible growth after this incubation. After the MIC was recorded, the lid assembly was again washed twice in PBS to remove planktonic cells and remaining antibiotic and then placed into fresh drug-free media. The system was incubated for a further 24 hours and the MBEC was defined as the lowest concentration of antibiotic completely inhibiting the re-establishment of planktonic growth.

[2] = test system: stringent S. aureus SH1000 cultures; assay: Time-kill against cultures expressing the stringent response (induced with mupirocin); settings: stringent response induced with mupirocin, agents at 4×MIC
Procedure: as §1
When nutrients become limiting for growth bacteria adjust their metabolism from one that supports growth to one that provides for long survival in the absence of nutrients. In many bacteria a key facilitator of this physiological switch, known as the stringent response, is accumulation of guanosine […] and pentaphosphate (Traxler et al., 2008). The antibiotic mupirocin is a strong inducer of the stringent response in S. aureus and effectively causes starvation of charged isoleucyl tRNA by potent inhibition of isoleucy ItRNA synthetase (IRS) (Oliva et al., 2003). The activity of XF drugs against S. aureus SH1000 prevented from growing by the addition of mupirocin (Oliva et al., 2003), was therefore examined (FIG. 10). As an alternative method for arresting growth, bacteria were suspended in cold growth medium (Mascio et al., 2007) and the bactericidal activity of XF drugs was also determined under these conditions (FIG. 11).
(§2) The anti-staphylococcal activities of Compound 10, Compound 12 and a range of comparator agents against slow-growing cultures of Staphylococcus aureus were studied using standard time-kill methodology (Oliva et al. 2003, Hobbs et al. 2008). Staphylococcus aureus SH1000 cultures were grown to early exponential phase (OD600 nm of 0.2) in Mueller-Hinton broth (MHB) before being exposed to antibacterial agents at 4×MIC. An untreated culture served as the negative control. The experiments were undertaken in triplicate.
The antibiotic mupirocin is a strong inducer of the stringent response in S. aureus and causes starvation of charged isoleucyl tRNA by potent inhibition of isoleucyl tRNA synthetase (IRS) (Oliva et al. 2003, Cassels et al. 1995) Stringency was induced in SH1000 cultures by adding mupirocin (4 mg/L) to cells in the early exponential growth phase (OD600 nm of 0.2) (Oliva et al. 2003, Cassels et al. 1995). Cultures were incubated with mupirocin for 30 minutes before sampling began. Cultures were maintained at 37° C., and samples were taken at 30 minute intervals for 300 minutes, serially diluted in phosphate buffered saline (PBS) and diluted culture was spread on Mueller-Hinton agar and was incubated at 37° C. for 18-24 hours before the number of CFU were counted.

[3] = test system: S. aureus SH1000 cold cultures; assay: Time-kill against cold cultures (4° C.); settings: cold culture held at 4° C. for 5 hours, agents at 4×MIC
Procedure: as §1
The effect of XF drugs on the viability of cold culture cells was determined by growing S. aureus SH1000 to early exponential phase at 37° C., harvesting the cells by centrifugation (5,000×g, 10 min.) and resuspending them in pre-chilled media where they were maintained in the presence and absence of XF drugs and control agents for 5 hours. […] (FIG. 11).
as §2
Cold cultures were prepared by growing SH1000 cells to early exponential phase (OD600 nm of 0.2) at 37° C. Cultures were then centrifuged and the cell pellet was resuspended in MHB pre-chilled to 4° C. The killing kinetics of antimicrobial agents were studied as described in the section above, with the exception that cultures were maintained at 4° C. over the 5 hour sampling period.

[4] = planktonic S. aureus SH1000 (Table 5)
[5] = planktonic S. aureus SH1000 (Table 6)
[6] = S. aureus SH1000, Calgary Biofilm Device, 24 hours (Table 6)
[7] = S. aureus SH1000, Calgary device (Example H)
[8] = S. aureus SH1000, Calgary Biofilm Device (Table 6)
[9] = Staphylococcus aureus, planktonic S. aureus SH1000 (Table 5), read-out: MIC
[10] = 24 h, S. aureus SH1000, Calgary Biofilm Device, 24 hours (Table 6)

Compound | MIC (S. aureus SH1000; [4]) [µg/mL] | MIC (S. aureus SH1000; [5]) [µg/mL] | bMIC [1, 6] [µg/mL] | bMIC [1, 7] [µg/mL] | MBEC [1, 8] [µg/mL] | MBEC [1, 7] [µg/mL] | MIC (S. aureus SH1000; [9]) [µg/mL] | MIC [1, 10] [µg/mL] | MIC [1, 7] [µg/mL] | viability / bactericidal activity in time-kill (in words) [2] | viability / bactericidal activity in time-kill (in words) [3]
CCCCCCCCCCCCCCCC[N+](C)(C)C.[Br-] [CTAB] | 2 | 2 | 2 | 2 | >256 | >256 | – | – | – | – | –
CO/N=C(\C(=O)N[C@@H]1C(=O)N2C(C(=O)O)=C(COC(C)=O)CS[C@H]12)c1csc(N)n1 [Cefotaxime] | – | 0.5 (≈ 1.1 µM) | – | – | – | – | 0.5 (≈ 1.1 µM) | 4 (≈ 8.78 µM) | 4 (≈ 8.78 µM) | – | –
[H]/N=C(\N/C(=N/[H])NCCCCCCNC(=N)NC(=N)Nc1ccc(Cl)cc1)Nc1ccc(Cl)cc1 [Chlorhexidine] | – | 2 (≈ 3.96 µM) | – | – | – | – | 2 (≈ 3.96 µM) | 1 (≈ 1.98 µM) | 1 (≈ 1.98 µM) | – | –
O=C(O)c1cn(C2CC2)c2cc(N3CCNCC3)c(F)cc2c1=O [Ciprofloxacin] | – | 2 (≈ 6.04 µM) | – | – | – | – | 2 (≈ 6.04 µM) | 4 (≈ 12.1 µM) | 4 (≈ 12.1 µM) | – | –
CCCCCCCCCC(=O)N[C@@H](Cc1c[nH]c2ccccc12)C(=O)N[C@H](CC(N)=O)C(=O)N[C@@H](CC(=O)O)C(=O)N[C@@H]1C(=O)NCC(=O)N[C@@H](CCCN)C(=O)N[C@@H](CC(=O)O)C(=O)N[C@H](C)C(=O)N[C@@H](CC(=O)O)C(=O)NCC(=O)N[C@H](CO)C(=O)N[C@@H]([C@H](C)CC(=O)O)C(=O)N[C@@H](CC(=O)c2ccccc2N)C(=O)O[C@@H]1C [Daptomycin] | – | 1 (≈ 0.617 µM) | – | – | – | – | 1 (≈ 0.617 µM) | 2 (≈ 1.23 µM) | 2 (≈ 1.23 µM) | no loss of viability | no loss of viability; also recorded: retained some bactericidal activity; also recorded: retained limited bactericidal activity
Cc1onc(-c2c(F)cccc2Cl)c1C(=O)N[C@@H]1C(=O)N2[C@@H]1SC(C)(C)[C@@H]2C(=O)O [Flucloxacillin] | – | 0.125 (≈ 0.275 µM) | – | – | – | – | 0.125 (≈ 0.275 µM) | 4 (≈ 8.81 µM) | 4 (≈ 8.81 µM) | – | –
CC(=O)O[C@H]1C[C@@]2(C)[C@@H](C[C@@H](O)[C@H]3[C@@]4(C)CC[C@@H](O)[C@@H](C)[C@@H]4CC[C@@]32C)/C1=C(\CCC=C(C)C)C(=O)O [Fusidic acid] | – | 0.25 (≈ 0.484 µM) | – | – | – | – | 0.25 (≈ 0.484 µM) | 0.5 (≈ 0.968 µM) | 0.5 (≈ 0.968 µM) | – | –
C[C@@H](O)[C@H]1C(=O)N2C(C(=O)O)=C(S[C@@H]3CN[C@H](C(=O)N(C)C)C3)[C@H](C)[C@H]12 [Meropenem] | – | 0.5 (≈ 1.3 µM) | – | – | – | – | 0.5 (≈ 1.3 µM) | 0.5 (≈ 1.3 µM) | 0.5 (≈ 1.3 µM) | – | –
C/C(=C\C(=O)OCCCCCCCCC(=O)O)C[C@@H]1OC[C@H](C[C@@H]2O[C@H]2[C@@H](C)[C@H](C)O)[C@@H](O)[C@H]1O [Mupirocin] | – | 0.125 (≈ 0.25 µM) | – | – | – | – | 0.125 (≈ 0.25 µM) | 0.25 (≈ 0.499 µM) | 0.25 (≈ 0.499 µM) | – | –
CO[C@H]1/C=C/O[C@@]2(C)Oc3c(C)c(O)c4c(O)c(c(/C=N/N5CCN(C)CC5)c(O)c4c3C2=O)NC(=O)/C(C)=C\C=C\[C@H](C)[C@H](O)[C@@H](C)[C@@H](O)[C@@H](C)[C@H](OC(C)=O)[C@@H]1C [Rifampin] | – | 0.008 (≈ 0.00972 µM) | – | – | – | – | 0.008 (≈ 0.00972 µM) | 0.02 (≈ 0.0243 µM) | 0.03 (≈ 0.0365 µM) | – | –
CN(C)[C@@H]1C(O)=C(C(N)=O)C(=O)[C@@]2(O)C(O)=C3C(=O)c4c(O)cccc4[C@@](C)(O)[C@H]3C[C@@H]12 [Tetracycline] | – | 1 (≈ 2.25 µM) | – | – | – | – | 1 (≈ 2.25 µM) | 0.5 (≈ 1.13 µM) | 0.5 (≈ 1.13 µM) | – | –
Gentamycin | 0.5 | 0.5 | 1 | 1 | >256 | >256 | – | – | – | – | –
